Measurements as given in ChEMBL document CHEMBL4308889, “Resorcinol alkyl glucosides as potent tyrosinase inhibitors” (Bioorg Med Chem Lett, 2019).

Target: T1, Tyrosinase (Homo sapiens, UniProt P14679)
T1 sequence (P14679 whole entry): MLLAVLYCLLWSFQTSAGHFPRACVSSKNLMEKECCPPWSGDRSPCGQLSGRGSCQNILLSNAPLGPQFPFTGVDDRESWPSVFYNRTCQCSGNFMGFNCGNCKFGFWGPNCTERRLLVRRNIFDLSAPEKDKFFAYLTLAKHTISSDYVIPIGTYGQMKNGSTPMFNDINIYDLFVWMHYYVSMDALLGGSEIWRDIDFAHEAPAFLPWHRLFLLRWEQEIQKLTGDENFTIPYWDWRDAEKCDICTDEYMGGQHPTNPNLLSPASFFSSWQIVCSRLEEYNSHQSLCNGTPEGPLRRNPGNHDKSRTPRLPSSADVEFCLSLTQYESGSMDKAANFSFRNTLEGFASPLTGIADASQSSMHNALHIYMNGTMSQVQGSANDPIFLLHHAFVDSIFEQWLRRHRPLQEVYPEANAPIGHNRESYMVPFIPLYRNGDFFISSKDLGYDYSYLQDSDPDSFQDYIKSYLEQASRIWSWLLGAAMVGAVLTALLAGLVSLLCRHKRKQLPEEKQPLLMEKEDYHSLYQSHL
Assay: Inhibition of tyrosinase (unknown origin) using L-DOPA as substrate preincubated with substrate for 5 mins followed by enzyme addition and measured immediately by spectrophotometric method

Row | IC50 [nM] | SMILES
1 | 417000 | OC[C@H]1O[C@@H](Oc2ccc(O)cc2O)[C@H](O)[C@@H](O)[C@@H]1O

Target: T2, Tyrosinase (Agaricus bisporus, UniProt O42713)
T2 sequence (O42713 whole entry): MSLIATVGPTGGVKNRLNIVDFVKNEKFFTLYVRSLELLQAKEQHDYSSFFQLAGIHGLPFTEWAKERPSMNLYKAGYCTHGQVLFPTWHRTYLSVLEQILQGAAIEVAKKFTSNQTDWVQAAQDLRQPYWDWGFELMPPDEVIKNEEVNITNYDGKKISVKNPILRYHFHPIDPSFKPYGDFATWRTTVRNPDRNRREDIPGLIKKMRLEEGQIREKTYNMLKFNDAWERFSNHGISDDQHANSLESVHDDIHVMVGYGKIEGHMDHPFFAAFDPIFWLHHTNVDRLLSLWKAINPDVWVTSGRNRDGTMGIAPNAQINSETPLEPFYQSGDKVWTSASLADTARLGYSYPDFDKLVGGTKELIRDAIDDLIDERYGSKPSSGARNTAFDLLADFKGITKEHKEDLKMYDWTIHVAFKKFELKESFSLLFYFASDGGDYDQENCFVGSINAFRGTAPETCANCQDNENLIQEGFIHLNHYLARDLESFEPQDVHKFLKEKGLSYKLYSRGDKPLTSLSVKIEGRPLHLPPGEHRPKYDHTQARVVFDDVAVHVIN
Assay: Inhibition of mushroom tyrosinase using TBC as substrate by spectrophotometric method

Row | IC50 [nM] | SMILES
2 | 3620 | OC[C@H]1O[C@@H](OCCCc2ccc(O)cc2O)[C@H](O)[C@@H](O)[C@@H]1O
3 | 35900 | OC[C@H]1O[C@@H](OCCc2ccc(O)cc2O)[C@H](O)[C@@H](O)[C@@H]1O
4 | 1360 | OC[C@H]1O[C@@H](OCCCCc2ccc(O)cc2O)[C@H](O)[C@@H](O)[C@@H]1O
5 | 610 | CCCCCCc1ccc(O)cc1O [HEXYLRESORCINOL]
6 | 390 | OC[C@H]1O[C@@H](OCCCCCCCCCCCCCCc2ccc(O)cc2O)[C@H](O)[C@@H](O)[C@@H]1O
7 | 630 | OC[C@H]1O[C@@H](OCCCCCCc2ccc(O)cc2O)[C@H](O)[C@@H](O)[C@@H]1O
8 | 410 | OC[C@H]1O[C@@H](OCCCCCCCCCCc2ccc(O)cc2O)[C@H](O)[C@@H](O)[C@@H]1O
